Measured values reported in the supplement of paper PMC10307832.

Experiments:
Experiment in all cases: relative viability (nuclei count vs DMSO), 5 days (fraction); higher = more cells survive
XMD8-85 + Lapatinib = compound: CN1CCN(CC1)C2=CC(=C(C=C2)NC3=NC=C4C(=N3)N(C5=CC=CC=C5C(=O)N4C)C)OC [XMD8-85] + CS(=O)(=O)CCNCc1ccc(-c2ccc3ncnc(Nc4ccc(OCc5cccc(F)c5)c(Cl)c4)c3c2)o1 [Lapatinib] (partner 2 µM)
Method in brief: (§1)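 Dosing by pin tool came one day after lung cancer cell lines were seeded in 1536-well plates, using either one drug or a fixed anchor-drug dose plus five library-drug doses (not always all listed) in √10 steps. After 5 days, nuclei were counted on 4× images. Relative viability is treated-well nuclei count divided by vehicle-well nuclei count, and values are medians of duplicate plates.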

4EGI-1 + Palbociclib = compound: O=C(O)C(Cc1ccccc1[N+](=O)[O-])=NNc1nc(-c2ccc(Cl)c(Cl)c2)cs1 (mixture of isomers) [4EGI-1] + CC(=O)c1c(C)c2cnc(Nc3ccc(N4CCNCC4)cn3)nc2n(C2CCCC2)c1=O [Palbociclib] (partner 0.5 µM)
Method in brief: as §1

4EGI-1 + Luminespib = compound: O=C(O)C(Cc1ccccc1[N+](=O)[O-])=NNc1nc(-c2ccc(Cl)c(Cl)c2)cs1 (mixture of isomers) [4EGI-1] + CCNC(=O)c1noc(-c2cc(C(C)C)c(O)cc2O)c1-c1ccc(CN2CCOCC2)cc1 [Luminespib] (partner 0.01 µM)
Method in brief: as §1

4EGI-1 + Phenformin = compound: O=C(O)C(Cc1ccccc1[N+](=O)[O-])=NNc1nc(-c2ccc(Cl)c(Cl)c2)cs1 (mixture of isomers) [4EGI-1] + N=C(N)NC(=N)NCCc1ccccc1 [Phenformin] (partner 250 µM)
Method in brief: as §1

Cell Line | relative viability (XMD8-85 + Lapatinib; first compound 0.08 µM) | relative viability (XMD8-85 + Lapatinib; first compound 0.8 µM) | relative viability (XMD8-85 + Lapatinib; first compound 2.53 µM) | relative viability (XMD8-85 + Lapatinib; first compound 8 µM) | relative viability (4EGI-1 + Palbociclib; first compound 0.5 µM) | relative viability (4EGI-1 + Palbociclib; first compound 1.581 µM) | relative viability (4EGI-1 + Palbociclib; first compound 5 µM) | relative viability (4EGI-1 + Palbociclib; first compound 15.81 µM) | relative viability (4EGI-1 + Palbociclib; first compound 50 µM) | relative viability (4EGI-1 + Luminespib; first compound 0.5 µM) | relative viability (4EGI-1 + Luminespib; first compound 1.581 µM) | relative viability (4EGI-1 + Luminespib; first compound 5 µM) | relative viability (4EGI-1 + Luminespib; first compound 15.81 µM) | relative viability (4EGI-1 + Luminespib; first compound 50 µM) | relative viability (4EGI-1 + Phenformin; first compound 0.5 µM) | relative viability (4EGI-1 + Phenformin; first compound 1.581 µM) | relative viability (4EGI-1 + Phenformin; first compound 5 µM) | relative viability (4EGI-1 + Phenformin; first compound 15.81 µM) | relative viability (4EGI-1 + Phenformin; first compound 50 µM) | relative viability (XMD8-85 + Lapatinib; first compound 0.253 µM)
BEN | 0.86 | 0.571 | 0.487 | 0.334 | 0.452 | 0.455 | 0.498 | 0.46 | 0.458 | 0.371 | 0.332 | 0.318 | 0.331 | 0.152 | 0.278 | 0.267 | 0.281 | 0.241 | 0.269 | –
SK-MES-1 | 0.443 | 0.446 | 0.464 | 0.419 | 0.354 | 0.27 | 0.336 | 0.288 | 0.18 | 0.705 | 0.686 | 0.831 | 0.669 | 0.188 | 0.687 | 0.614 | 0.725 | 0.618 | 0.381 | 0.493
NCI-H1623 | – | – | – | – | – | – | – | – | – | 0.637 | 0.553 | 0.707 | 0.383 | 0.387 | 0.586 | 0.5 | 0.607 | 0.45 | 0.53 | –
IA-LM | 0.847 | 0.611 | 0.455 | 0.16 | – | – | – | – | – | – | – | – | – | – | – | – | – | – | – | 0.59
CAL-12T | 0.626 | 0.679 | 0.678 | 0.604 | 0.618 | – | 0.577 | 0.169 | 0.145 | 0.411 | 0.149 | 0.186 | 0.4 | 0.251 | 0.578 | 0.465 | 0.609 | 0.527 | 0.179 | –
ABC-1 | 1.32 | 0.942 | 1.21 | 1.11 | 0.73 | – | 0.738 | 0.527 | 0.249 | 0.83 | 0.326 | 0.792 | 0.402 | 0.201 | 0.239 | 0.234 | 0.215 | 0.209 | 0.171 | 1.18
LCLC-97TM1 | 0.703 | 0.859 | 1.02 | 1.15 | 0.224 | – | 0.227 | 0.177 | 0.123 | 0.875 | 0.675 | 0.715 | 0.955 | 0.0986 | 0.456 | 0.343 | 0.437 | 0.404 | 0.375 | 0.931
PC-14 | 0.32 | 0.276 | 0.38 | 0.268 | 0.559 | – | 0.659 | 0.188 | 0.0675 | 0.466 | – | 0.195 | 0.155 | 0.155 | 0.614 | – | 0.792 | 0.188 | 0.232 | 0.398
NCI-H23 | 0.949 | 1.09 | 1.08 | 0.969 | 0.541 | – | 0.614 | 0.393 | 0.272 | 0.221 | – | 0.23 | 0.246 | 0.179 | 0.884 | – | 0.763 | 0.826 | 0.706 | 1.05
NCI-H727 | 0.627 | – | 0.731 | 0.543 | 0.689 | 0.617 | 0.641 | 0.604 | 0.62 | 0.506 | 0.381 | 0.273 | 0.449 | 0.429 | 0.648 | 0.518 | 0.511 | 0.572 | 0.332 | 0.792
A549 | 1.08 | 1.06 | 1.03 | 0.869 | – | – | – | – | – | – | – | – | – | – | 0.154 | – | 0.172 | 0.148 | 0.0933 | 0.974
COR-L 105 | 0.366 | 0.407 | 0.342 | 0.348 | 0.386 | 0.419 | 0.434 | 0.334 | 0.344 | 1.04 | 0.648 | 0.801 | 0.667 | 0.598 | 0.46 | 0.442 | 0.488 | 0.375 | 0.31 | 0.341
NCI-H650 | 0.867 | 1.04 | 0.876 | – | 0.319 | – | 0.295 | 0.319 | 0.33 | 0.825 | – | 0.878 | 0.646 | 0.784 | 0.455 | – | 0.451 | 0.47 | 0.31 | 0.858
NCI-H1975 | 0.897 | 0.886 | 1.1 | 0.441 | 0.725 | 0.565 | 0.527 | 0.665 | 0.41 | 0.337 | – | 0.214 | 0.261 | 0.159 | 0.444 | 0.356 | 0.407 | 0.442 | 0.361 | 0.832
NCI-H2023 | 0.649 | 0.957 | 1.02 | 0.516 | 0.358 | – | 0.483 | 0.245 | 0.0543 | 0.897 | 0.544 | 0.798 | 0.203 | 0.0714 | 0.503 | – | 0.425 | 0.281 | 0.117 | 0.755
EMC-BAC-2 | 0.914 | 0.945 | 0.944 | 0.835 | 0.561 | – | 0.504 | 0.29 | 0.157 | 1.25 | 1.01 | 1.16 | 1.15 | 1.06 | 0.664 | 0.524 | 0.612 | 0.608 | 0.385 | 0.847
